Laboratory results reported in paper PMC6471485, “Selective Inhibitors of a Human Prolyl Hydroxylase (OGFOD1) Involved in Ribosomal Decoding” (Chemistry (Weinheim an Der Bergstrasse, Germany), 2019).
Entries after “also recorded” stand apart in the source; their conditions may differ.

Assays:
[1] = target: JARID1C (Homo sapiens, UniProt P41229); assay: JARID1C AlphaScreen-based assay; assay type: biochemical
Experimental: (§1) reactions were quenched after 4 min. KDM4A inhibition was tested as described previously using a formaldehyde dehydrogenase (FDH) assay.[9] JARID1B and JARID1C inhibition was tested as described previously using reported AlphaScreen-based assays.[10] MINA531-464 and NO66116-641 were cloned into pFB-LIC-Bse, and the N-terminal His-tagged proteins were produced in Sf9 insect cells. The MINA53 peptide substrate Rpl27a […]
(§2) (Gly31 – Pro49 […]) and the NO66 peptide substrate Rpl8
(§3) (Asn205 – Thr224 […]) were synthesized by Peptide Protein
(§4) Research Ltd (Fareham, Hampshire, UK) to >95% purity. IC50 determinations were performed in 384-well polypropylene plates (Greiner Bio One, Cat Number 781096), and compound dispenses were performed using an ECHO 550 acoustic dispenser (Labcyte, Sunnyvale, CA).
(§5) NO66 (diluted to 375 nM in 50 mM MES pH 7.0, 150 mM NaCl) and MINA53 (diluted to 187.5 nM in 50 mM HEPES pH 7.5, 50 mM NaCl) were dispensed (40 µL) into 384-well compound plates using a multidrop combi reagent dispenser (Thermo Scientific, Code 5840300) with a small tube plastic tip dispensing cassette (Thermo Scientific, Code 24073290).
(§6) NO66 and MINA53 were pre-incubated with compound for 15 minutes, and the enzyme reaction initiated by dispensing 10 µL of substrate solution [250 µM (NH4)2Fe(SO4)2, 500 µM sodium ascorbate, 25 µM 2OG, 25 µM peptide] in optimized enzyme buffer. […]

[2] = S9 liver microsome stability assay (Cyprotex); assay type: in vitro ADME; conditions: for microsomal CLint: S9 liver microsome assay, read-out: predicted intrinsic clearance; for clearance classification: low clearance: < 8.6 µL/min/mg protein
Experimental: supplemented with 80 µM Zn(II), 70 µM of inhibitor, all in 50 mM Tris-d11, pH 7.5, 10 % D2O, […]
Cell Culture and Immunoblotting
HeLa cells were cultured in DMEM media supplemented with 10 % fetal bovine serum, 4 mM L-glutamine, 100 U/mL penicillin, and 100 µg/mL streptomycin. Cells were treated with the indicated compounds, prepared in 1% DMSO, for 5 h. Following a PBS buffer rinse, cells were lysed in urea/SDS buffer supplemented with 1 mM dithiothreitol. Cell extracts were analyzed by SDS-PAGE, electroblotted onto PVDF membranes (Millipore) and probed with anti-HIF-1α antibody (clone 54, BD Transduction Laboratories) at 1:1000 dilution for 1 h at room temperature. The HRP-conjugated secondary antibody was then applied at room temperature for 1 h. Target proteins were detected with SuperSignal Chemiluminescent […]
ADMET in vitro Predictors
S9 liver microsome stability assays and MDCK-MDR1 efflux assays were carried out for CCT3 and CCT4 by Cyprotex (UK). Additional details are provided later in the Supporting […]
The solubility and metabolic stability of CCT3 and CCT4 was preliminarily evaluated using a S9 liver microsome assay (Cyprotex, UK). According to the assay, CCT3 and CCT4 had […]
respectively, and are thus classified as having low clearance (< 8.6 µL/min/mg protein).
The cell permeability of CCT3 and CCT4 were evaluated using an MDR1-MDCK in vitro […]
able to penetrate the blood-brain barrier. The permeability coefficients were determined to be

[3] = target: T1, KDM4A (Homo sapiens, UniProt O75164); assay: KDM4A formaldehyde dehydrogenase (FDH) assay; assay type: biochemical
T1 sequence (O75164 1-1064): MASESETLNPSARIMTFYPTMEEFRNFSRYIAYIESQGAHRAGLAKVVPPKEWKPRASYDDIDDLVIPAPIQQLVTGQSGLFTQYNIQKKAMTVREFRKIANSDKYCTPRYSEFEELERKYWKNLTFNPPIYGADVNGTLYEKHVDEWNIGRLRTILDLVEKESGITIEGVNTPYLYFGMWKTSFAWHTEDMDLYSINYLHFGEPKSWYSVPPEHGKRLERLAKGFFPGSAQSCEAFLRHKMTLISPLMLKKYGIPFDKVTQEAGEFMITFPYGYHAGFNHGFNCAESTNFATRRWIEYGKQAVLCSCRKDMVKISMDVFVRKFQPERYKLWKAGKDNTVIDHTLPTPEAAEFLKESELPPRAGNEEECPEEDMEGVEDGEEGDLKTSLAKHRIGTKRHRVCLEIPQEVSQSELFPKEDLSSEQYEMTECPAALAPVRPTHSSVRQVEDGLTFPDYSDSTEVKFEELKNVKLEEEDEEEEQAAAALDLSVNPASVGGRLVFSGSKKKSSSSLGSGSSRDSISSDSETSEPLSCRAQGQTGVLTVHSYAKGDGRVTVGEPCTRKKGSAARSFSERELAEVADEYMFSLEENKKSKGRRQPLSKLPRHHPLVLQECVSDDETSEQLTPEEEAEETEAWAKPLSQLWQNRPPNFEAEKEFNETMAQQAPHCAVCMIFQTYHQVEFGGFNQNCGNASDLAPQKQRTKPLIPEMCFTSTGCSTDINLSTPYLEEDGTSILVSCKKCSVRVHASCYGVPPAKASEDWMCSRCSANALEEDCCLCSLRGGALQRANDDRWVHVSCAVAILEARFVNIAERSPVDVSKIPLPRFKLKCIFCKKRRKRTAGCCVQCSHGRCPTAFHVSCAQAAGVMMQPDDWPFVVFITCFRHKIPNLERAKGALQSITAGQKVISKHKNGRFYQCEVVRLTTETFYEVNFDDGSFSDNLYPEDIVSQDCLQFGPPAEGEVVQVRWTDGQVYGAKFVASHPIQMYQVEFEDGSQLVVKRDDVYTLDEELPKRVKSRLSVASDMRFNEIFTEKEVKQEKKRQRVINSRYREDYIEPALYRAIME
Experimental: as §1, §2, §3, §4, §5, §6

[4] = target: T2, PHD2181-426 (Homo sapiens, UniProt Q9GZT9); assay: wLOGSY NMR binding experiment with PHD2; conditions: 400 µM inhibitor, 50 µM PHD2
T2 construct: 181-426 (1 µM) was
T2 sequence (Q9GZT9 181-426 limits assumed): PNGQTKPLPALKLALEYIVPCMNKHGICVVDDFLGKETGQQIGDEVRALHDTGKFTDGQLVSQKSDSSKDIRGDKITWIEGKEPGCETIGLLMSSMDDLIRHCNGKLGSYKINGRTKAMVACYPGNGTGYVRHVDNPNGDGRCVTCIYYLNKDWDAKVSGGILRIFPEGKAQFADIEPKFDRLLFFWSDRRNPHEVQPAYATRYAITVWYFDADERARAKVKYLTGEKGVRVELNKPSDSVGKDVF

JARID1C, sequence (P41229 whole entry): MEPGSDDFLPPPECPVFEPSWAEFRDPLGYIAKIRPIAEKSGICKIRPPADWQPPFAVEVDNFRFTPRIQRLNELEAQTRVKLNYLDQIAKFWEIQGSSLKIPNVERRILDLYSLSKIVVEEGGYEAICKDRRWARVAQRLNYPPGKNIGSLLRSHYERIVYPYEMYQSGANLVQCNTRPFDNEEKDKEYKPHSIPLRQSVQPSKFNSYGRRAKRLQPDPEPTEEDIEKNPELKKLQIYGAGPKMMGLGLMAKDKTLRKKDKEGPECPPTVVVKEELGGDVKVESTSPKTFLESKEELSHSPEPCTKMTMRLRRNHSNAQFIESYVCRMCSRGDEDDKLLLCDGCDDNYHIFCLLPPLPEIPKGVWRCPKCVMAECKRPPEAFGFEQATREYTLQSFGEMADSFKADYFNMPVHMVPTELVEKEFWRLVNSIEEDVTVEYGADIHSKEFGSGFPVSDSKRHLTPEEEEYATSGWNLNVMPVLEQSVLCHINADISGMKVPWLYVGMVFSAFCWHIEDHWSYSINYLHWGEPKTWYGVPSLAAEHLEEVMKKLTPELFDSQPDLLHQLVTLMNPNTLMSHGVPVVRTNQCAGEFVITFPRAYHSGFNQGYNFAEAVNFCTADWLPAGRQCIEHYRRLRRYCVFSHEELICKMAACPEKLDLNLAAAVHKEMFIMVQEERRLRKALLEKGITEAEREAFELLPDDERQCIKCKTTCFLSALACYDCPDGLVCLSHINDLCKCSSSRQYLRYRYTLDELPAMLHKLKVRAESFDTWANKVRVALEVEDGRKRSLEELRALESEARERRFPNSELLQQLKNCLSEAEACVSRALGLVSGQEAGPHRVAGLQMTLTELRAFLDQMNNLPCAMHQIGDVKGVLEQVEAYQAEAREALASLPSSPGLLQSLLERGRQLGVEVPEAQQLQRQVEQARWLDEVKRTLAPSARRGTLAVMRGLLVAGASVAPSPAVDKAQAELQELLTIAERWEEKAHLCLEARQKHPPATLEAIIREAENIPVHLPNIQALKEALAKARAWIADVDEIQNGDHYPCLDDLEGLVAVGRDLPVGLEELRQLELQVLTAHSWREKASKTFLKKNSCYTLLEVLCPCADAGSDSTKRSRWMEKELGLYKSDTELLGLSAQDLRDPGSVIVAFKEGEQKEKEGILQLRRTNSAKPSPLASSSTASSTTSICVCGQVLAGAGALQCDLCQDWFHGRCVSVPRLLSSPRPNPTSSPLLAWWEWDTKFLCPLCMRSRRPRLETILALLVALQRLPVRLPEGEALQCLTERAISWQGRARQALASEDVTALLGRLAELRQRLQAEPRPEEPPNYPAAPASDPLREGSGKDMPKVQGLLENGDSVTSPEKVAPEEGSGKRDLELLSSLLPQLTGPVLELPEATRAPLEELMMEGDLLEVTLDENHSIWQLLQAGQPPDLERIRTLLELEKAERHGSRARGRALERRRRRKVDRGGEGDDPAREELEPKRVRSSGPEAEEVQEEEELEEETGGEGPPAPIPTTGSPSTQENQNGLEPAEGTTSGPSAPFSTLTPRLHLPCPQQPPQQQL

Row | Structure (SMILES) | IC50 [1] | microsomal CLint [2] | clearance classification ([2]; listed as CCT4) | IC50 [3] | binding to PHD2 by wLOGSY NMR, in words ([4]; listed as CCT4) | clearance classification ([2]; listed as CCT3) | binding to PHD2 by wLOGSY NMR, in words ([4]; listed as CCT3)
1 | Cn1c(O)c(C(=O)CCc2cccs2)c(=O)n(C)c1=O [compound 42] | > 100 µM | 7.72 µL/min/mg | only low levels of clearance | > 100 µM | weaker; also recorded: only weak binding to PHD2 | – | –
2 | Cn1c(O)c(C(=O)CCc2ccccc2)c(=O)n(C)c1=O [compound 26] | > 100 µM | 4.76 µL/min/mg | – | > 100 µM | – | only low levels of clearance | weaker; also recorded: only weak binding to PHD2
